US20110039721A1, “METHOD FOR PREDICTION ABOUT CARCINOGENICITY OF SUBSTANCE IN RODENT” (Chemicals Evaluation and Research Institute, priority 2007, published 2011)

System: mRNA expressed from the genes (A) to (D) in rat liver
Assay: Behavior of genes (mRNA expression level, oligo-DNA microarray) in rat liver after 28-day oral administration
Type: in vivo
Details: for Behavior of gene caused by administration of chemical substance, Gene No. 4846 / Behavior of gene caused by administration of chemical substance, Gene No. 2026 / Behavior of gene caused by administration of chemical substance, Gene No. 4218 / Behavior of gene caused by administration of chemical substance, Gene No. 6182 / Behavior of gene caused by administration of chemical substance, Gene No. 5600: gene group (A); for Behavior of gene caused by administration of chemical substance, Gene No. 4846: Unigene No. Rn.144554; for Behavior of gene caused by administration of chemical substance, Gene No. 2026 / Behavior of gene caused by administration of chemical substance, Gene No. 4218: Unigene No. Rn.167075; for Behavior of gene caused by administration of chemical substance, Gene No. 6182: Unigene No. Rn.5834; for Behavior of gene caused by administration of chemical substance, Gene No. 5600: Unigene No. Rn.9836; for Behavior of gene caused by administration of chemical substance, Gene No. 1494 / Behavior of gene caused by administration of chemical substance, Gene No. 2045 / Behavior of gene caused by administration of chemical substance, Gene No. 2203: gene group (B); for Behavior of gene caused by administration of chemical substance, Gene No. 1494: Unigene No. Rn.1430; for Behavior of gene caused by administration of chemical substance, Gene No. 2045: Unigene No. Rn.19329; for Behavior of gene caused by administration of chemical substance, Gene No. 2203: Unigene No. Rn.21240; for Behavior of gene caused by administration of chemical substance, Gene No. 533 / Behavior of gene caused by administration of chemical substance, Gene No. 725 / Behavior of gene caused by administration of chemical substance, Gene No. 1163 / Behavior of gene caused by administration of chemical substance, Gene No. 4973 / Behavior of gene caused by administration of chemical substance, Gene No. 4095 / Behavior of gene caused by administration of chemical substance, Gene No. 1334 / Behavior of gene caused by administration of chemical substance, Gene No. 6620 / Behavior of gene caused by administration of chemical substance, Gene No. 6303 / Behavior of gene caused by administration of chemical substance, Gene No. 5878 / Behavior of gene caused by administration of chemical substance, Gene No. 1131 / Behavior of gene caused by administration of chemical substance, Gene No. 1562 / Behavior of gene caused by administration of chemical substance, Gene No. 1741 / Behavior of gene caused by administration of chemical substance, Gene No. 893 / Behavior of gene caused by administration of chemical substance, Gene No. 6026 / Behavior of gene caused by administration of chemical substance, Gene No. 154 / Behavior of gene caused by administration of chemical substance, Gene No. 1993 / Behavior of gene caused by administration of chemical substance, Gene No. 813 / Behavior of gene caused by administration of chemical substance, Gene No. 2494 / Behavior of gene caused by administration of chemical substance, Gene No. 2546 / Behavior of gene caused by administration of chemical substance, Gene No. 3776 / Behavior of gene caused by administration of chemical substance, Gene No. 3929 / Behavior of gene caused by administration of chemical substance, Gene No. 1119 / Behavior of gene caused by administration of chemical substance, Gene No. 6742 / Behavior of gene caused by administration of chemical substance, Gene No. 5634: gene group (C); for Behavior of gene caused by administration of chemical substance, Gene No. 533: Unigene No. Rn.106184; for Behavior of gene caused by administration of chemical substance, Gene No. 725: Unigene No. Rn.108075; for Behavior of gene caused by administration of chemical substance, Gene No. 1163: Unigene No. Rn.11766; for Behavior of gene caused by administration of chemical substance, Gene No. 4973: Unigene No. Rn.118529; for Behavior of gene caused by administration of chemical substance, Gene No. 4095: Unigene No. Rn.119024; for Behavior of gene caused by administration of chemical substance, Gene No. 1334 / Behavior of gene caused by administration of chemical substance, Gene No. 6620: Unigene No. Rn.120914; for Behavior of gene caused by administration of chemical substance, Gene No. 6303: Unigene No. Rn.123063; for Behavior of gene caused by administration of chemical substance, Gene No. 5878: Unigene No. Rn.143213; for Behavior of gene caused by administration of chemical substance, Gene No. 1131: Unigene No. Rn.144946; for Behavior of gene caused by administration of chemical substance, Gene No. 1562: Unigene No. Rn.14744; for Behavior of gene caused by administration of chemical substance, Gene No. 1741: Unigene No. Rn.1647; for Behavior of gene caused by administration of chemical substance, Gene No. 893: Unigene No. Rn.164817; for Behavior of gene caused by administration of chemical substance, Gene No. 6026: Unigene No. Rn.167685; for Behavior of gene caused by administration of chemical substance, Gene No. 154: Unigene No. Rn.185941; for Behavior of gene caused by administration of chemical substance, Gene No. 1993: Unigene No. Rn.18728; for Behavior of gene caused by administration of chemical substance, Gene No. 813: Unigene No. Rn.201760; for Behavior of gene caused by administration of chemical substance, Gene No. 2494: Unigene No. Rn.23969; for Behavior of gene caused by administration of chemical substance, Gene No. 2546: Unigene No. Rn.24561; for Behavior of gene caused by administration of chemical substance, Gene No. 3776: Unigene No. Rn.43232; for Behavior of gene caused by administration of chemical substance, Gene No. 3929: Unigene No. Rn.4620; for Behavior of gene caused by administration of chemical substance, Gene No. 1119: Unigene No. Rn.9757; for Behavior of gene caused by administration of chemical substance, Gene No. 6742: Unigene No. Rn.9779; for Behavior of gene caused by administration of chemical substance, Gene No. 5634: Unigene No. Rn.9862; for Behavior of gene caused by administration of chemical substance, Gene No. 5726: gene group (D), Unigene No. Rn.9939
Experimental: A test solution was prepared by dissolving each of the carcinogens and the non-carcinogens shown in Tables 2 to 6 in the corresponding solvent shown in Tables 2 to 6. Each of the thus prepared test solutions and the solvents used for the preparation was administered by oral gavage to rats in each group. As the rats, male rats (F344 SPF rats) at 5 weeks of age obtained from Charles River Laboratories Japan, Inc. were used. The animals were divided into groups, each containing four individuals. The volume of the solvent administered to the vehicle control group was set to the same volume as that of the test solution administered to the carcinogen administration group or the non-carcinogen administration group. The administration of the test solution or the solvent was performed once daily for 28 days. Apiece was excised from the liver of each of the rats after a lapse of 28 days from the initiation of the administration, and the total RNA was extracted and purified.
The expression level of mRNA was compared between each of the chemical substance administration groups and the corresponding vehicle control group, and genes that satisfy the requirements described in (A) to (D) were selected, respectively.
The case where the expression level of mRNA in the carcinogen administration group or the non-carcinogen administration group is 1.5 times or more or 1/1.5 or less of the expression level of the corresponding mRNA expressed in the control group was determined to be significant. In this connection, the determination as to whether or not the change is significant was performed by taking into consideration the direction of increase or decrease in the expression level. In the case where the direction of increase or decrease is different as compared with the case where another carcinogen was administered, the change was determined to be not significant.

c1ccc2c(c1)cc1ccc3cccc4ccc2c1c34 [TS063, Benzo[a]pyrene]
−: Behavior of gene caused by administration of chemical substance, Gene No. 4846 (mRNA vs vehicle control group) | Behavior of gene caused by administration of chemical substance, Gene No. 4218 (mRNA vs vehicle control group) | Behavior of gene caused by administration of chemical substance, Gene No. 5600 (mRNA vs vehicle control group) | Behavior of gene caused by administration of chemical substance, Gene No. 1494 (mRNA vs vehicle control group) | Behavior of gene caused by administration of chemical substance, Gene No. 533 (mRNA vs vehicle control group) | Behavior of gene caused by administration of chemical substance, Gene No. 725 (mRNA vs vehicle control group) | Behavior of gene caused by administration of chemical substance, Gene No. 1163 (mRNA vs vehicle control group) | Behavior of gene caused by administration of chemical substance, Gene No. 4973 (mRNA vs vehicle control group) | Behavior of gene caused by administration of chemical substance, Gene No. 4095 (mRNA vs vehicle control group) | Behavior of gene caused by administration of chemical substance, Gene No. 1334 (mRNA vs vehicle control group) | Behavior of gene caused by administration of chemical substance, Gene No. 6620 (mRNA vs vehicle control group) | Behavior of gene caused by administration of chemical substance, Gene No. 6303 (mRNA vs vehicle control group) | Behavior of gene caused by administration of chemical substance, Gene No. 5878 (mRNA vs vehicle control group) | Behavior of gene caused by administration of chemical substance, Gene No. 1131 (mRNA vs vehicle control group) | Behavior of gene caused by administration of chemical substance, Gene No. 1562 (mRNA vs vehicle control group) | Behavior of gene caused by administration of chemical substance, Gene No. 1741 (mRNA vs vehicle control group) | Behavior of gene caused by administration of chemical substance, Gene No. 893 (mRNA vs vehicle control group) | Behavior of gene caused by administration of chemical substance, Gene No. 6026 (mRNA vs vehicle control group) | Behavior of gene caused by administration of chemical substance, Gene No. 154 (mRNA vs vehicle control group) | Behavior of gene caused by administration of chemical substance, Gene No. 1993 (mRNA vs vehicle control group) | Behavior of gene caused by administration of chemical substance, Gene No. 813 (mRNA vs vehicle control group) | Behavior of gene caused by administration of chemical substance, Gene No. 2494 (mRNA vs vehicle control group) | Behavior of gene caused by administration of chemical substance, Gene No. 2546 (mRNA vs vehicle control group) | Behavior of gene caused by administration of chemical substance, Gene No. 3776 (mRNA vs vehicle control group) | Behavior of gene caused by administration of chemical substance, Gene No. 3929 (mRNA vs vehicle control group) | Behavior of gene caused by administration of chemical substance, Gene No. 1119 (mRNA vs vehicle control group) | Behavior of gene caused by administration of chemical substance, Gene No. 6742 (mRNA vs vehicle control group) | Behavior of gene caused by administration of chemical substance, Gene No. 5726 (mRNA vs vehicle control group)
+: Behavior of gene caused by administration of chemical substance, Gene No. 2026 (mRNA vs vehicle control group) | Behavior of gene caused by administration of chemical substance, Gene No. 6182 (mRNA vs vehicle control group) | Behavior of gene caused by administration of chemical substance, Gene No. 2045 (mRNA vs vehicle control group) | Behavior of gene caused by administration of chemical substance, Gene No. 2203 (mRNA vs vehicle control group) | Behavior of gene caused by administration of chemical substance, Gene No. 5634 (mRNA vs vehicle control group)

COc1ccc2c(c1)c(CC(=O)O)c(C)n2C(=O)c1ccc(Cl)cc1 [TS085, Indomethacin]
−: Behavior of gene caused by administration of chemical substance, Gene No. 4846 | Behavior of gene caused by administration of chemical substance, Gene No. 2026 | Behavior of gene caused by administration of chemical substance, Gene No. 4218 | Behavior of gene caused by administration of chemical substance, Gene No. 6182 | Behavior of gene caused by administration of chemical substance, Gene No. 5600 | Behavior of gene caused by administration of chemical substance, Gene No. 1494 | Behavior of gene caused by administration of chemical substance, Gene No. 2045 | Behavior of gene caused by administration of chemical substance, Gene No. 2203 | Behavior of gene caused by administration of chemical substance, Gene No. 533 | Behavior of gene caused by administration of chemical substance, Gene No. 725 | Behavior of gene caused by administration of chemical substance, Gene No. 1163 | Behavior of gene caused by administration of chemical substance, Gene No. 4973 | Behavior of gene caused by administration of chemical substance, Gene No. 4095 | Behavior of gene caused by administration of chemical substance, Gene No. 1334 | Behavior of gene caused by administration of chemical substance, Gene No. 6620 | Behavior of gene caused by administration of chemical substance, Gene No. 6303 | Behavior of gene caused by administration of chemical substance, Gene No. 5878 | Behavior of gene caused by administration of chemical substance, Gene No. 1131 | Behavior of gene caused by administration of chemical substance, Gene No. 1562 | Behavior of gene caused by administration of chemical substance, Gene No. 1741 | Behavior of gene caused by administration of chemical substance, Gene No. 893 | Behavior of gene caused by administration of chemical substance, Gene No. 6026 | Behavior of gene caused by administration of chemical substance, Gene No. 154 | Behavior of gene caused by administration of chemical substance, Gene No. 1993 | Behavior of gene caused by administration of chemical substance, Gene No. 813 | Behavior of gene caused by administration of chemical substance, Gene No. 2494 | Behavior of gene caused by administration of chemical substance, Gene No. 2546 | Behavior of gene caused by administration of chemical substance, Gene No. 3776 | Behavior of gene caused by administration of chemical substance, Gene No. 3929 | Behavior of gene caused by administration of chemical substance, Gene No. 1119 | Behavior of gene caused by administration of chemical substance, Gene No. 6742 | Behavior of gene caused by administration of chemical substance, Gene No. 5634 | Behavior of gene caused by administration of chemical substance, Gene No. 5726
